Columns and labels:
L. maculans = assay type: cell-based, Leptosphaeria maculans
F. graminearum = assay type: cell-based, Fusarium graminearum
M. luteus = assay type: cell-based, Micrococcus luteus
E. coli = assay type: cell-based, Escherichia coli
F. oxysporum = assay type: cell-based, Fusarium oxysporum
A. rabiei = assay type: cell-based, Ascochyta rabiei

## Gm-moricinC3: Moricin-like peptide from Galleria mellonella, SEQ ID NO:5; purified from hemolymph and synthesised by Auspep (KVPIGAIKKGGKIIKKGLGVIGAAGTAHEVYSHVKNRQ; listed as Galleria mellonella)
L. maculans
  concentration level at which activity against spores of L. maculans was shown: 100 µM
F. graminearum
  activity against F. graminearum of fractions purified from hemolymph: activity
  concentration level at which activity against spores of F. graminearum was shown: 10 µM
M. luteus
  concentration at which activity against M. luteus was shown: 100 µM
E. coli
  concentration at which activity against E. coli was shown: 100 µM
F. oxysporum
  concentration level at which activity against spores of F. oxysporum was shown: 100 µM

## Gm-moricinC4/C5: Mature Gm-moricinC4 and Gm-moricinC5 from Galleria mellonella, identical mature amino acid sequences (SEQ ID NO:1 and 3), synthesised by Auspep (KVPVGAIKKGGKAIKTGLGVVGAAGTAHEVYSHIRNRH; listed as Galleria mellonella)
L. maculans
  concentration level at which activity against spores of L. maculans was shown: 100 µM
F. graminearum
  concentration level at which activity against spores of F. graminearum was shown: 100 µM
M. luteus
  activity against M. luteus: no activity
E. coli
  concentration at which activity against E. coli was shown: 100 µM
F. oxysporum
  activity against spores of F. oxysporum: no activity

## Gm-moricinD: Moricin-like antifungal peptide from Galleria mellonella, SEQ ID NO:7; purified from hemolymph and synthesised by Auspep (KGIGSALKKGGKIIKGGLGALGAIGTGQQVYEHVQNRQ; listed as Galleria mellonella)
L. maculans
  concentration level at which activity against spores of L. maculans was shown: 100 µM
A. rabiei
  concentration level at which activity against spores of A. rabiei was shown: 100 µM
F. graminearum
  activity against F. graminearum of fractions purified from hemolymph: activity
  concentration level at which activity against spores of F. graminearum was shown: 10 µM
M. luteus
  activity against M. luteus: no activity
E. coli
  activity against E. coli: no activity
F. oxysporum
  concentration level at which activity against spores of F. oxysporum was shown: 100 µM
